Source: patent US9957265B2, “N-(2-cyano heterocyclyl) pyrazolo pyridones as janus kinase inhibitors” (Merck Sharp & Dohme Corp., priority 2013, dated 2018)
Read-outs that look alike come from different tables or passages of the source.

What was measured:
JAK2 = JAK2 (Homo sapiens (Human), UniProt O60674); experiment: Jak Biochemical HTRF Assay (JAK2)
Procedure: The ability of compounds to inhibit the activity of JAK1, JAK2, JAK3, and TYK2 was measured using a recombinant purified GST-tagged catalytic domain for each enzyme (Invitrogen JAK1 #M4290, JAK2 #M4290, JAK3 #M4290, TYK2 #M4290) in an HTRF format biochemical assay. […] Subsequent reagent additions employed an Agilent Bravo. […] After equilibration, 2 μL of 10×ATP in 1× assay buffer was added to initiate the kinase reaction and the plates were shaken and then incubated at room temperature for 120 minutes. […] After normalization to untreated controls, the percent inhibition of the HTRF signal at each compound concentration was calculated. The plot of percent inhibition versus the log of compound concentration was fit with a 4-parameter dose response equation to calculate IC50 values.
Final reaction conditions were:

JAK1 = JAK1 (Homo sapiens (Human), UniProt P23458); experiment: Jak Biochemical HTRF Assay (JAK1); settings: recombinant GST-tagged catalytic domain, [ATP] 31.8 μM, unit not given (compound concentrations tested given in nM)
Chain of JAK1 (P23458 875-1153): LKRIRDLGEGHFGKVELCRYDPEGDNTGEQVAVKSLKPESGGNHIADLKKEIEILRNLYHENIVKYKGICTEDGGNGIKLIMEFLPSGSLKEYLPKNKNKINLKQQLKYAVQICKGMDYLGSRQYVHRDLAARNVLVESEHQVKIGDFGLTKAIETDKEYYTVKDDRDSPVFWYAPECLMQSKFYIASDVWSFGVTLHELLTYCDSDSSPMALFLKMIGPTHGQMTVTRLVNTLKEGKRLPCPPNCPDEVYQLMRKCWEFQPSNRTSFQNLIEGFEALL
Excerpt: Jak Biochemical HTRF Assay Protocol
Subsequent reagent additions employed an Agilent Bravo.

[1] = JAK2 IC50, recombinant GST-tagged catalytic domain, [ATP] 8.5 μM, unit not given (compound concentrations tested given in nM)
[2] = read-out: JAK2 IC50, recombinant GST-tagged catalytic domain, [ATP] 8.5 μM, unit not given (compound concentrations tested given in nM)

Chain of JAK2 (O60674 849-1124): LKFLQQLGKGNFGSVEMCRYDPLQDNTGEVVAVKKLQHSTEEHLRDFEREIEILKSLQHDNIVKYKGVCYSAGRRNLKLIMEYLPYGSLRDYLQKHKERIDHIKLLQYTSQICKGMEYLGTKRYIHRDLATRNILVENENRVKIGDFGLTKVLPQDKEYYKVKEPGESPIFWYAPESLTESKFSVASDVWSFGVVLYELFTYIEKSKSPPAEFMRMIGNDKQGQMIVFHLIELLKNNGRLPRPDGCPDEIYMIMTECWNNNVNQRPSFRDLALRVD

IC50 (JAK2; [1])	IC50 (JAK1)	IC50 (JAK2; [2])	Compound
0.11 nM	0.09 nM		N#C[C@H]1CCOC[C@@H]1n1nc(Nc2ccc(C(NC3CCC3)C(F)(F)F)cc2)c2c(=O)[nH]ccc21 (single isomer, unassigned) [Example 1-93, (3R,4S)-3-[3-({4-[(1R or 1S)-1-(cyclobutylamino)-2,2,2-trifluoroethyl]phenyl}amino)-4-oxo-4,5-dihydro-1H-pyrazolo[4,3-c]pyridin-1-yl]tetrahydro-2H-pyran-4-carbonitrile]
0.15 nM	0.08 nM		N#C[C@H]1CCOCC1n1nc(Nc2ccc(C(O)(c3ccncc3)C(F)(F)F)cc2)c2c(=O)[nH]ccc21 (single isomer, unassigned) [Example 1-94, (3R,4S)-3-(4-oxo-3-((4-((S or R)-2,2,2-trifluoro-1-hydroxy-1-(pyridin-4-yl)ethyl)phenyl)amino)-4,5-dihydro-1H-pyrazolo[4,3-c]pyridin-1-yl)tetrahydro-2H-pyran-4-carbonitrile]
0.09 nM	0.06 nM		N#C[C@H]1CCOCC1n1nc(Nc2ccc(C(O)(c3ccncc3)C(F)(F)F)cc2)c2c(=O)[nH]ccc21 (single isomer, unassigned) [Example 1-95, (3R,4S)-3-(4-oxo-3-((4-((S or R)-2,2,2-trifluoro-1-hydroxy-1-(pyridin-4-yl)ethyl)phenyl)amino)-4,5-dihydro-1H-pyrazolo[4,3-c]pyridin-1-yl)tetrahydro-2H-pyran-4-carbonitrile]
0.15 nM	0.07 nM		N#C[C@H]1CCOCC1n1nc(Nc2ccc(C(O)(c3ccccn3)C(F)(F)F)cc2)c2c(=O)[nH]ccc21 (single isomer, unassigned) [Example 1-96, (3R,4S)-3-(4-oxo-3-((4-((S or R)-2,2,2-trifluoro-1-hydroxy-1-(pyridin-2-yl)ethyl)phenyl)amino)-4,5-dihydro-1H-pyrazolo[4,3-c]pyridin-1-yl)tetrahydro-2H-pyran-4-carbonitrile]
0.18 nM	0.14 nM		N#C[C@H]1CCOCC1n1nc(Nc2ccc(C(O)(c3ccccn3)C(F)(F)F)cc2)c2c(=O)[nH]ccc21 (single isomer, unassigned) [Example 1-97, (3R,4S)-3-(4-oxo-3-((4-((S or R)-2,2,2-trifluoro-1-hydroxy-1-(pyridin-2-yl)ethyl)phenyl)amino)-4,5-dihydro-1H-pyrazolo[4,3-c]pyridin-1-yl)tetrahydro-2H-pyran-4-carbonitrile]
0.05 nM	0.06 nM		CC(C)NC1(C)C(=O)Nc2cc(Nc3nn(C4COCC[C@@H]4C#N)c4cc[nH]c(=O)c34)ccc21 (single isomer, unassigned) [Example 1-100, (3R,4S)-3-[3-({(3R or 3S)-3-methyl-3-[(1-methylethyl)amino]-2-oxo-2,3-dihydro-1H-indol-6-yl}amino)-4-oxo-4,5-dihydro-1H-pyrazolo[4,3-c]pyridin-1-yl] tetrahydro-2H-pyran-4-carbonitrile]
	0.07 nM	0.05 nM	CC(C)NC1(C)C(=O)Nc2cc(Nc3nn(C4COCC[C@@H]4C#N)c4cc[nH]c(=O)c34)ccc21 (single isomer, unassigned) [Example 1-101, (3R,4S)-3-[3-({(3S or 3R)-3-methyl-3-[(1-methylethyl)amino]-2-oxo-2,3-dihydro-1H-indol-6-yl}amino)-4-oxo-4,5-dihydro-1H-pyrazolo[4,3-c]pyridin-1-yl] tetrahydro-2H-pyran-4-carbonitrile]
0.39 nM	0.06 nM		CC(O)(c1ccc(Nc2nn([C@H]3COCC[C@@H]3C#N)c3cc[nH]c(=O)c23)cc1)C(F)(F)F (single isomer, unassigned) [Example 2-3, (3R,4S)-3-[4-oxo-3-({4-[(1R or 1S)-2,2,2-trifluoro-1-hydroxy-1-methylethyl]phenyl}amino)-4,5-dihydro-1H-pyrazolo[4,3-c]pyridin-1-yl]tetrahydro-2H-pyran-4-carbonitrile]
0.27 nM	0.05 nM		CC(O)(c1ccc(Nc2nn([C@H]3COCC[C@@H]3C#N)c3cc[nH]c(=O)c23)cc1)C(F)(F)F (single isomer, unassigned) [Example 2-4, (3R,4S)-3-[4-oxo-3-({4-[(1R or 1S)-2,2,2-trifluoro-1-hydroxy-1-methylethyl]phenyl}amino)-4,5-dihydro-1H-pyrazolo[4,3-c]pyridin-1-yl]tetrahydro-2H-pyran-4-carbonitrile]
0.15 nM	0.14 nM		N#C[C@H]1CCOC[C@@H]1n1nc(Nc2ccc(C(N3CCSCC3)C(F)(F)F)cc2)c2c(=O)[nH]ccc21 (single isomer, unassigned) [Example 2-5, (3R,4S)-3-[4-oxo-3-({4-[(1S or 1R)-2,2,2-trifluoro-1-thiomorpholin-4-ylethyl]phenyl}amino)-4,5-dihydro-1H-pyrazolo[4,3-c]pyridin-1-yl]tetrahydro-2H-pyran-4-carbonitrile]
0.24 nM	0.21 nM		N#C[C@H]1CCOC[C@@H]1n1nc(Nc2ccc(C(N3CCSCC3)C(F)(F)F)cc2)c2c(=O)[nH]ccc21 (single isomer, unassigned) [Example 2-6, (3R,4S)-3-[4-oxo-3-({4-[(1R or 1S)-2,2,2-trifluoro-1-thiomorpholin-4-ylethyl]phenyl}amino)-4,5-dihydro-1H-pyrazolo[4,3-c]pyridin-1-yl]tetrahydro-2H-pyran-4-carbonitrile]
0.06 nM	0.05 nM		N#C[C@H]1CCOC[C@@H]1n1nc(Nc2ccc(C3(C(F)(F)F)CCCCN3)cc2)c2c(=O)[nH]ccc21 (single isomer, unassigned) [Example 2-7, (3R,4S)-3-[4-oxo-3-({4-[(2S or 2R)-2-(trifluoromethyl)piperidin-2-yl]phenyl}amino)-4,5-dihydro-1H-pyrazolo[4,3-c]pyridin-1-yl] tetrahydro-2H-pyran-4-carbonitrile]
0.05 nM	0.05 nM		N#C[C@H]1CCOC[C@@H]1n1nc(Nc2ccc(C3(C(F)(F)F)CCCCN3)cc2)c2c(=O)[nH]ccc21 (single isomer, unassigned) [Example 2-8, (3R,4S)-3-[4-oxo-3-({4-[(2R or 2S)-2-(trifluoromethyl)piperidin-2-yl]phenyl}amino)-4,5-dihydro-1H-pyrazolo[4,3-c]pyridin-1-yl] tetrahydro-2H-pyran-4-carbonitrile]
13.7 nM	0.89 nM		C[S+]([O-])c1cc(Nc2nn([C@H]3COCC[C@@H]3C#N)c3cc[nH]c(=O)c23)ccc1F (single isomer, unassigned) [Example 3-2, (3R,4S)-3-(3-((4-fluoro-3-((S or R)-methylsulfinyl)phenyl)amino)-4-oxo-4,5-dihydro-1H-pyrazolo[4,3-c]pyridin-1-yl)tetrahydro-2H-pyran-4-carbonitrile]
7.44 nM	1.64 nM		C[S+]([O-])c1cc(Nc2nn([C@H]3COCC[C@@H]3C#N)c3cc[nH]c(=O)c23)ccc1F (single isomer, unassigned) [Example 3-3, (3R,4S)-3-(3-((4-fluoro-3-((S or R)-methylsulfinyl)phenyl)amino)-4-oxo-4,5-dihydro-1H-pyrazolo[4,3-c]pyridin-1-yl)tetrahydro-2H-pyran-4-carbonitrile]
	0.24 nM	0.82 nM	C[C@H]1CN(S(=O)(=O)c2ccc(Nc3nn([C@H]4COCC[C@@H]4C#N)c4cc[nH]c(=O)c34)cc2)C[C@H](C)O1 (stereo in doubt) [Example 1-76, (3R,4S)-3-{3-[(4-{[(trans)-2,6-dimethylmorpholin-4-yl]sulfonyl}phenyl)amino]-4-oxo-4,5-dihydro-1H-pyrazolo[4,3-c]pyridin-1-yl}tetrahydro-2H-pyran-4-carbonitrile]
	7.06 nM	11.5 nM	CS(=O)(=O)c1ccc(Nc2nn([C@@H]3COCC[C@H]3C#N)c3cc[nH]c(=O)c23)cc1 [Example 1-1, (3S,4R)-3-(3-((4-(methylsulfonyl)phenyl)amino)-4-oxo-4,5-dihydro-1H-pyrazolo[4,3-c]pyridin-1-yl)tetrahydro-2H-pyran-4-carbonitrile]
	0.05 nM	0.35 nM	CS(=O)(=O)c1ccc(Nc2nn([C@H]3COCC[C@@H]3C#N)c3cc[nH]c(=O)c23)cc1 [Example 1-2, (3R,4S)-3-(3-((4-(methylsulfonyl)phenyl)amino)-4-oxo-4,5-dihydro-1H-pyrazolo[4,3-c]pyridin-1-yl)tetrahydro-2H-pyran-4-carbonitrile]
	0.11 nM	1.39 nM	N#C[C@H]1CCOC[C@@H]1n1nc(Nc2ccccc2)c2c(=O)[nH]ccc21 [Example 1-3, (3R,4S)-3-(4-oxo-3-(phenylamino)-4,5-dihydro-1H-pyrazolo[4,3-c]pyridin-1-yl)tetrahydro-2H-pyran-4-carbonitrile]
	0.04 nM	0.34 nM	CN1Cc2cc(Nc3nn([C@H]4COCC[C@@H]4C#N)c4cc[nH]c(=O)c34)ccc2S1(=O)=O [Example 1-4, (3R,4S)-3-(3-((2-methyl-1,1-dioxido-2,3-dihydrobenzo[d]isothiazol-5-yl)amino)-4-oxo-4,5-dihydro-1H-pyrazolo[4,3-c]pyridin-1-yl)tetrahydro-2H-pyran-4-carbonitrile]
	0.05 nM	0.15 nM	CC(C)(C)N1Cc2cc(Nc3nn([C@H]4COCC[C@@H]4C#N)c4cc[nH]c(=O)c34)ccc2S1(=O)=O [Example 1-5, (3R,4S)-3-(3-((2-(tert-butyl)-1,1-dioxido-2,3-dihydrobenzo[d]isothiazol-5-yl)amino)-4-oxo-4,5-dihydro-1H-pyrazolo[4,3-c]pyridin-1-yl)tetrahydro-2H-pyran-4-carbonitrile]
	0.07 nM	0.21 nM	CN(C)S(=O)(=O)c1ccc(Nc2nn([C@H]3COCC[C@@H]3C#N)c3cc[nH]c(=O)c23)cc1 [Example 1-6, 4-((1-((3R,4S)-4-cyanotetrahydro-2H-pyran-3-yl)-4-oxo-4,5-dihydro-1H-pyrazolo[4,3-c]pyridin-3-yl)amino)-N,N-dimethyl-benzenesulfonamide]
